{"source": "patent EP4748837A1", "about": "“AROMATIC AMIDE DERIVATIVE, AND PREPARATION METHOD THEREFOR AND USE THEREOF” (Zhejiang Hisun Pharmaceutical Co., Ltd., priority 2023, dated 2025)", "key": {"OVCAR-3 cells": {"tested_on": "OVCAR-3 cells", "assay": "Inhibition of OVCAR-3 cell proliferation (CellTiter-Glo cell viability)", "format": "cell-based", "conditions": "Homo sapiens; OVCAR-3 cells (TP53 R248Q mutation), 72 hours culture with compound; read-out: IC50", "procedure": "(§1) Influences of the compounds of the present invention on OVCAR-3 cell proliferation were determined by the following method. OVCAR-3 cells (containing TP53 R248Q mutation) were purchased from the Cell Bank of Shanghai Institute of Biochemistry and Cell Biology, Chinese Academy of Sciences, and cultured in an RPMI 1640 culture medium containing 10% fetal bovine serum, 100 U penicillin and 100 µg/mL streptomycin. A cell viability was determined by a CellTiter-Glo® Luminescent Cell Viability Assay kit (Promega, article number G7573).\n(§2) An experimental method was operated according to steps in the instruction of the kit, which was briefly described as follows: a test compound was dissolved in DMSO first to prepare a 10 mM stock solution, then the stock solution was diluted with the culture medium to prepare a test sample, and a final concentration of the compound was in a range of 1000 nM-0.015 nM. Cells in a logarithmic growth phase were inoculated into a 96-well cell culture plate at a density of 1000 cells per well, cultured in a 5% CO2 incubator at 37°C overnight, and then the test compound was added to continuously culture for 72 hours. After the culture was ended, 50 uL of CellTiter-Glo detection solution was added to each well , shaken for 5 minutes, and then allowed to stand for 10 minutes, and subsequently, a luminance value of each well of the sample was read by a microplate reader in a Luminescence mode. By comparing with the numerical value of a control group (0.3% DMSO), a percentage inhibition rate of the compound at each concentration point was calculated, and then nonlinear regression analysis was carried out based on concentration logarithm-inhibition rate of the compound in GraphPad Prism 5 software, so as to obtain an IC50 value of the compound for inhibiting the cell proliferation, which was as shown in Table 1. Table 1 IC50 data of the compounds of the present invention for inhibiting OVCAR-3 cell proliferation"}, "HT-29 cells": {"tested_on": "HT-29 cells", "assay": "Inhibition of HT-29 cell proliferation (CellTiter-Glo cell viability)", "format": "cell-based", "conditions": "Homo sapiens; HT-29 cells (TP53 R273H mutation), 120 hours culture with compound; read-out: IC50", "procedure": "as §1, with “HT-29” for “OVCAR-3”, “R273H” for “R248Q”, “a McCOY's 5A” for “an RPMI 1640”\nas §2, with “for 120” for “for 72”, “each well,” for “each well ,”, “Table 2.” for “Table 1.”, “Table 2” for “Table 1”, “inhibiting HT-29” for “inhibiting OVCAR-3”"}}, "data": [{"smiles": "CCS(=O)(=O)Nc1ccc(C(=O)Nc2ccc(C(N)=O)c(N3CCC(F)(F)CC3)c2)c(N2CCC3(CC2)CC3)c1", "note": "[Example 1, N-(4-carbamoyl-3-(4,4-difluor opiperidin-1-yl)phenyl)-4-(ethylsulfonamido)-2-(6-azaspiro[2.5]octan-6-yl)benzamide]", "values": [{"measurement": "IC50", "setting": "OVCAR-3 cells", "result": 16.5, "unit": "nM"}, {"measurement": "IC50", "setting": "HT-29 cells", "result": 10.2, "unit": "nM"}]}, {"smiles": "CCS(=O)(=O)Nc1ccc(C(=O)Nc2ccc(C(=O)NC)c(N3CCC(F)(F)CC3)c2)c(N2CCC3(CC2)CC3)c1", "note": "[Example 3, 2-(4,4-difluoropiperidin-1-yl)-4-(4-(ethylsulfonamido)-2-(6-azaspiro[2.5]octan-6-yl)benzamido)-N-methylbenzamide]", "values": [{"measurement": "IC50", "setting": "OVCAR-3 cells", "result": 3.7, "unit": "nM"}, {"measurement": "IC50", "setting": "HT-29 cells", "result": 4, "unit": "nM"}]}, {"smiles": "CCS(=O)(=O)Nc1ccc(C(=O)Nc2ccc(C(=O)N(C)C)c(N3CCC(F)(F)CC3)c2)c(N2CCC3(CC2)CC3)c1", "note": "[Example 4, 2-(4,4-difluoropiperidin-1-yl)-4-(4-(ethylsulfonamido)-2-(6-azaspiro[2.5]octan-6-yl)benzamido)-N,N-dimethylbenzamide]", "values": [{"measurement": "IC50", "setting": "OVCAR-3 cells", "result": 18.9, "unit": "nM"}]}, {"smiles": "CCS(=O)(=O)Nc1ccc(C(=O)Nc2ccc(C(C)=O)c(N3CCC(F)(F)CC3)c2)c(N2CCC3(CC2)CC3)c1", "note": "[Example 5, N-(4-acetyl-3-(4,4-difluoropiperidin-1-yl)phenyl)-4-(ethylsulfonamido)-2-(6-azaspiro[2.5]octan-6-yl)benzamide]", "values": [{"measurement": "IC50", "setting": "OVCAR-3 cells", "result": 33.1, "unit": "nM"}]}, {"smiles": "CCS(=O)(=O)Nc1ccc(C(=O)Nc2ccc(CO)c(N3CCC(F)(F)CC3)c2)c(N2CCC3(CC2)CC3)c1", "note": "[Example 6, N-(3-(4,4-difluoropiperidin-1-yl)-4-(hydroxymethyl)phenyl)-4-(ethylsulfonamido)-2-(6-azaspiro[2.5]octan-6-yl)benzamide]", "values": [{"measurement": "IC50", "setting": "OVCAR-3 cells", "result": 11.1, "unit": "nM"}, {"measurement": "IC50", "setting": "HT-29 cells", "result": 13.3, "unit": "nM"}]}, {"smiles": "CCS(=O)(=O)Nc1ccc(C(=O)Nc2ccc(-c3ncco3)c(N3CCC(F)(F)CC3)c2)c(N2CCC3(CC2)CC3)c1", "note": "[Example 7, N-(3-(4,4-difluoropiperidin-1-yl)-4-(oxazol-2-yl)phenyl)-4-(ethylsulfonamido)-2-(6-azaspiro[2.5]octan-6-yl)benzamide]", "values": [{"measurement": "IC50", "setting": "OVCAR-3 cells", "result": 11.1, "unit": "nM"}, {"measurement": "IC50", "setting": "HT-29 cells", "result": 18.3, "unit": "nM"}]}, {"smiles": "CCS(=O)(=O)Nc1ccc(C(=O)Nc2ccc(-c3ccncc3)c(N3CCC(F)(F)CC3)c2)c(N2CCC3(CC2)CC3)c1", "note": "[Example 8, N-(3-(4,4-difluoropiperidin-1-yl)-4-(pyridin-4-yl)phenyl)-4-(ethylsulfonamido)-2-(6-azaspiro[2.5]octan-6-yl)benzamide]", "values": [{"measurement": "IC50", "setting": "OVCAR-3 cells", "result": 21.2, "unit": "nM"}]}, {"smiles": "CCS(=O)(=O)Nc1ccc(C(=O)Nc2ccc(-c3cccnc3)c(N3CCC(F)(F)CC3)c2)c(N2CCC3(CC2)CC3)c1", "note": "[Example 9, N-(3-(4,4-difluoropiperidin-1-yl)-4-(pyridin-3-yl)phenyl)-4-(ethylsulfonamido)-2-(6-azaspiro[2.5]octan-6-yl)benzamide]", "values": [{"measurement": "IC50", "setting": "OVCAR-3 cells", "result": 15.2, "unit": "nM"}, {"measurement": "IC50", "setting": "HT-29 cells", "result": 14.5, "unit": "nM"}]}, {"smiles": "CCS(=O)(=O)Nc1ccc(C(=O)Nc2ccc(-c3ccccn3)c(N3CCC(F)(F)CC3)c2)c(N2CCC3(CC2)CC3)c1", "note": "[Example 10, N-(3-(4,4-difluoropiperidin-1-yl)-4-(pyridin-2-yl)phenyl)-4-(ethylsulfonamido)-2-(6-azaspiro[2.5]octan-6-yl)benzamide]", "values": [{"measurement": "IC50", "setting": "OVCAR-3 cells", "result": 17.3, "unit": "nM"}, {"measurement": "IC50", "setting": "HT-29 cells", "result": 27.1, "unit": "nM"}]}, {"smiles": "CCS(=O)(=O)Nc1ccc(C(=O)Nc2ccc(-c3cnccn3)c(N3CCC(F)(F)CC3)c2)c(N2CCC3(CC2)CC3)c1", "note": "[Example 11, N-(3-(4,4-difluoropiperidin-1-yl)-4-(pyrazin-2-yl)phenyl)-4-(ethylsulfonamido)-2-(6-azaspiro[2.5]octan-6-yl)benzamide]", "values": [{"measurement": "IC50", "setting": "OVCAR-3 cells", "result": 17.7, "unit": "nM"}, {"measurement": "IC50", "setting": "HT-29 cells", "result": 16.3, "unit": "nM"}]}, {"smiles": "CCS(=O)(=O)Nc1ccc(C(=O)Nc2ccc(-n3ccnc3)c(C3=CCC(F)(F)CC3)c2)c(N2CCC3(CC2)CC3)c1", "note": "[Example 22, N-(4',4'-difluoro-6-(1H-imidazol-1-yl)-2',3',4',5'-tetrahydro-[1,1'-biphenyl]-3-yl)-4-(ethylsulfonamido)-2-(6-azaspiro[2. 5]octan-6-yl)benzamide]", "values": [{"measurement": "IC50", "setting": "OVCAR-3 cells", "result": 19.9, "unit": "nM"}, {"measurement": "IC50", "setting": "HT-29 cells", "result": 16.8, "unit": "nM"}]}, {"smiles": "CCS(=O)(=O)Nc1ccc(C(=O)Nc2ccc(-c3ncco3)c(OC3CC(F)(F)C3)c2)c(N2CCC3(CC2)CC3)c1", "note": "[Example 23, N-(3-(3,3-difluorocyclobutoxy)-4-(oxazol-2-yl)phenyl)-4-(ethylsulfonamido)-2-(6-azaspiro [2.5]octan-6-yl)benzamide]", "values": [{"measurement": "IC50", "setting": "OVCAR-3 cells", "result": 51.3, "unit": "nM"}]}, {"smiles": "CCS(=O)(=O)Nc1ccc(C(=O)Nc2ccc(-n3ccnc3)c(OC3CC(F)(F)C3)c2)c(N2CCC3(CC2)CC3)c1", "note": "[Example 24, N-(3-(3,3-difluorocyclobutoxy)-4-(1H-imidazol-1-yl)phenyl) -4-(ethylsulfonamido)-2-(6-azaspiro[2.5]octan-6-yl)benzamide]", "values": [{"measurement": "IC50", "setting": "OVCAR-3 cells", "result": 17.6, "unit": "nM"}]}, {"smiles": "O=C(Nc1ccc(-n2ccnn2)c(N2CCC(F)(F)CC2)c1)c1ccc(NS(=O)(=O)C2CC2)cc1N1CCC2(CC1)CC2", "note": "[Example 32, 4-(cyclopropanesulfonamido)-N-(3-(4,4-difluoropiperidin-1-yl)-4-(1H-1,2,3-triazol-1-yl)phenyl)-2-(6-azaspiro[2.5]octan-6-yl)benzamide]", "values": [{"measurement": "IC50", "setting": "OVCAR-3 cells", "result": 5.9, "unit": "nM"}, {"measurement": "IC50", "setting": "HT-29 cells", "result": 4.7, "unit": "nM"}]}, {"smiles": "CCS(=O)(=O)Nc1ccc(C(=O)Nc2ccc(-c3nnn(C)n3)c(N3CCC(F)(F)CC3)c2)c(N2CCC3(CC2)CC3)c1", "note": "[Example 35, N-(3-(4,4-difluoropiperidin-1-yl)-4-(2-methyl-2H-tetrazol-5-yl)phenyl)-4-(ethylsulfonamido)-2-(6-azaspiro[2.5]octan-6-y 1)benzamide]", "values": [{"measurement": "IC50", "setting": "OVCAR-3 cells", "result": 11.1, "unit": "nM"}, {"measurement": "IC50", "setting": "HT-29 cells", "result": 6.2, "unit": "nM"}]}, {"smiles": "CCS(=O)(=O)Nc1ccc(C(=O)Nc2ccc(-c3ccon3)c(N3CCC(F)(F)CC3)c2)c(N2CCC3(CC2)CC3)c1", "note": "[Example 36, N-(3-(4,4-difluoropiperidin-1-yl)-4-(isoxazol-3-yl)phenyl)-4-(ethylsulfonamido)-2-(6-azaspiro[2.5]octan-6-yl)benzamide]", "values": [{"measurement": "IC50", "setting": "OVCAR-3 cells", "result": 11.1, "unit": "nM"}, {"measurement": "IC50", "setting": "HT-29 cells", "result": 9.3, "unit": "nM"}]}, {"smiles": "CCS(=O)(=O)Nc1ccc(C(=O)Nc2ccc(-c3ncnn3C)c(N3CCC(F)(F)CC3)c2)c(N2CCC3(CC2)CC3)c1", "note": "[Example 38, N-(3-(4,4-difluoropiperidin-1-yl)-4-(1-methyl-1H-1,2,4-triazol-5-yl)phenyl)-4-(ethylsulfon amido)-2-(6-azaspiro[2.5]octan-6-yl)benzamide]", "values": [{"measurement": "IC50", "setting": "OVCAR-3 cells", "result": 27.1, "unit": "nM"}]}, {"smiles": "CCS(=O)(=O)Nc1ccc(C(=O)Nc2ccc(-c3nnco3)c(N3CCC(F)(F)CC3)c2)c(N2CCC3(CC2)CC3)c1", "note": "[Example 40, N-(3-(4,4-difluoropiperidin-1-yl)-4-(1,3,4-oxadiazol-2-yl)phenyl)-4-(ethylsulfonamido)-2-(6-azaspiro[2.5]octan-6-yl)benz amide]", "values": [{"measurement": "IC50", "setting": "OVCAR-3 cells", "result": 6, "unit": "nM"}, {"measurement": "IC50", "setting": "HT-29 cells", "result": 8.2, "unit": "nM"}]}, {"smiles": "CCS(=O)(=O)Nc1ccc(C(=O)Nc2ccc(-c3ncn(C)n3)c(NC3CC(F)(F)C3)c2)c(N2CCC3(CC2)CC3)c1", "note": "[Example 54, N-(3-((3,3-difluorocyclobutyl)amino)-4-(1-methyl-1H-1,2,4-triazol-3-yl)phenyl)-4-(ethylsulfonamido)-2-(6-azaspiro[2.5]octan-6-yl)benzamide]", "values": [{"measurement": "IC50", "setting": "OVCAR-3 cells", "result": 38.9, "unit": "nM"}]}, {"smiles": "CCS(=O)(=O)Nc1ccc(C(=O)Nc2ccc(Oc3ccccn3)c(N3CCC(F)(F)CC3)c2)c(N2CCC3(CC2)CC3)c1", "note": "[Example 55, N-(3-(4,4-difluoropiperidin-1-yl)-4-(pyridin-2-yloxy)phenyl) -4-(ethylsulfonamido)-2-(6-azaspiro[2.5]octan-6-yl)benzamide]", "values": [{"measurement": "IC50", "setting": "OVCAR-3 cells", "result": 44.7, "unit": "nM"}]}]}
